Source: ChEMBL document CHEMBL1201862, “PubChem BioAssay data set” (2004)
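Interpolation was linear, between the two tested concentrations surrounding the appropriate level; five concentrations were tested over 48 hours in 96-well plates. At the GI50, growth is halved.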 Calls of active or inactive are those of the source. Rule as the data show it: active = GI50 up to about 1.1 µM and inactive = higher.

Assays:
Assay in all cases: DTP human tumour cell line panel, 48 h
HL-60 = tested on: HL-60
RPMI-8226 = tested on: RPMI-8226
A549 = tested on: A549
NCI-H23 = tested on: NCI-H23
A498 = tested on: A498
SK-OV-3 = tested on: SK-OV-3
COLO 205 = tested on: COLO 205
HT-29 = tested on: HT-29
M14 = tested on: M14
RXF 631 = tested on: RXF 631
DMS-273 = tested on: DMS-273
KM12 = tested on: KM12
SNB-78 = tested on: SNB-78
786-0 = tested on: 786-0
U-251 = tested on: U-251
HCT-116 = tested on: HCT-116
NCI-H460 = tested on: NCI-H460
CAKI-1 = tested on: CAKI-1
SNB-75 = tested on: SNB-75
K562 = tested on: K562
IGROV-1 = tested on: IGROV-1
DMS-114 = tested on: DMS-114
CCRF-CEM = tested on: CCRF-CEM
EKVX = tested on: EKVX
HOP-18 = tested on: HOP-18
SNB-19 = tested on: SNB-19
UACC-62 = tested on: UACC-62
OVCAR-3 = tested on: OVCAR-3
NCI-H522 = tested on: NCI-H522
HCC 2998 = tested on: HCC 2998
SK-MEL-5 = tested on: SK-MEL-5
LXFL 529 = tested on: LXFL 529
HOP-62 = tested on: HOP-62
XF498 = tested on: XF498
HCT-15 = tested on: HCT-15
SW-620 = tested on: SW-620
SF-295 = tested on: SF-295
SK-MEL-2 = tested on: SK-MEL-2
UO-31 = tested on: UO-31
Malme-3M = tested on: Malme-3M
TK-10 = tested on: TK-10
KM-20L2 = tested on: KM-20L2
OVCAR-4 = tested on: OVCAR-4
MOLT-4 = tested on: MOLT-4
OVCAR-8 = tested on: OVCAR-8
UACC-257 = tested on: UACC-257
SN12C = tested on: SN12C
M19-MEL = tested on: M19-MEL
ACHN = tested on: ACHN
SF-539 = tested on: SF-539
SF-268 = tested on: SF-268
OVCAR-5 = tested on: OVCAR-5
NCI-H226 = tested on: NCI-H226
RXF 393 = tested on: RXF 393
SK-MEL-28 = tested on: SK-MEL-28
LOX IMVI = tested on: LOX IMVI
DLD-1 = tested on: DLD-1
HOP-92 = tested on: HOP-92

COC(=O)C1=CC2OC13CC1CCC3(C2=O)C1(C)C (stereo not drawn)
GI50 (HL-60): 6.9 µM (inactive)
GI50 (RPMI-8226): 15.1 µM (inactive)
GI50 (A549): 31.4 µM (inactive)
GI50 (NCI-H23): 16 µM (inactive)
GI50 (A498): 19.1 µM (inactive)
GI50 (SK-OV-3): 21 µM (inactive)
GI50 (COLO 205): 15.5 µM (inactive)
GI50 (HT-29): 13.2 µM (inactive)
GI50 (M14): 5.28 µM (inactive)
GI50 (RXF 631): 13.9 µM (inactive)
GI50 (DMS-273): 11.2 µM (inactive)
GI50 (KM12): 16.5 µM (inactive)
GI50 (SNB-78): 14.4 µM (inactive)
GI50 (786-0): 12.2 µM (inactive)
GI50 (U-251): 12.9 µM (inactive)
GI50 (HCT-116): 11.4 µM (inactive)
GI50 (NCI-H460): 34.1 µM (inactive)
GI50 (CAKI-1): 2.2 µM (inactive)
GI50 (SNB-75): 7.01 µM (inactive)
GI50 (K562): 11.2 µM (inactive)
GI50 (IGROV-1): 16.7 µM (inactive)
GI50 (DMS-114): 7.29 µM (inactive)
GI50 (CCRF-CEM): 3.25 µM (inactive)
GI50 (EKVX): > 10 µM (inactive)
GI50 (HOP-18): 6.46 µM (inactive)
GI50 (SNB-19): 21.6 µM (inactive)
GI50 (UACC-62): 16.3 µM (inactive)
GI50 (OVCAR-3): 5.89 µM (inactive)
GI50 (NCI-H522): 2.34 µM (inactive)
GI50 (HCC 2998): 14.5 µM (inactive)
GI50 (SK-MEL-5): 15.8 µM (inactive)
GI50 (LXFL 529): 4.49 µM (inactive)
GI50 (HOP-62): 23.4 µM (inactive)
GI50 (XF498): 3.77 µM (inactive)
GI50 (HCT-15): 5.36 µM
GI50 (SW-620): 4.05 µM (inactive)
GI50 (SF-295): 19.6 µM (inactive)
GI50 (SK-MEL-2): 15.2 µM (inactive)
GI50 (UO-31): 5.89 µM (inactive)
GI50 (Malme-3M): 8.07 µM (inactive)
GI50 (TK-10): 10.4 µM (inactive)
GI50 (KM-20L2): 13.3 µM (inactive)
GI50 (OVCAR-4): 10.9 µM (inactive)
GI50 (MOLT-4): 14 µM (inactive)
GI50 (OVCAR-8): 8.04 µM (inactive)
GI50 (UACC-257): 10.4 µM (inactive)
GI50 (SN12C): 12.7 µM (inactive)
GI50 (M19-MEL): 11.5 µM (inactive)
GI50 (ACHN): 8.83 µM (inactive)
GI50 (SF-539): 14.2 µM (inactive)
GI50 (SF-268): 10 µM (inactive)
GI50 (OVCAR-5): 19 µM (inactive)
GI50 (NCI-H226): 17.1 µM (inactive)
GI50 (RXF 393): 12 µM (inactive)

Cc1cc(=O)n2c3c(c4c(cc13)c(CO)cc(=O)n4C)OC2
GI50 (RPMI-8226): 32.1 µM (inactive)
GI50 (A549): 36.1 µM (inactive)
GI50 (NCI-H23): 13.5 µM (inactive)
GI50 (A498): 14.6 µM (inactive)
GI50 (SK-MEL-28): 18.8 µM (inactive)
GI50 (SK-OV-3): 20 µM (inactive)
GI50 (COLO 205): 16.5 µM (inactive)
GI50 (HT-29): 19.5 µM (inactive)
GI50 (M14): 20.6 µM (inactive)
GI50 (RXF 631): 5.6 µM (inactive)
GI50 (DMS-273): 8.85 µM (inactive)
GI50 (KM12): 7.94 µM (inactive)
GI50 (SNB-78): 15 µM (inactive)
GI50 (786-0): 12.6 µM (inactive)
GI50 (U-251): 6.14 µM (inactive)
GI50 (HCT-116): 4.45 µM (inactive)
GI50 (NCI-H460): 18 µM (inactive)
GI50 (CAKI-1): 30.7 µM (inactive)
GI50 (SNB-75): 19.9 µM (inactive)
GI50 (K562): 5.56 µM (inactive)
GI50 (IGROV-1): 34.8 µM (inactive)
GI50 (DMS-114): 14.1 µM (inactive)
GI50 (CCRF-CEM): 9.46 µM (inactive)
GI50 (EKVX): 64.4 µM (inactive)
GI50 (HOP-18): 19.5 µM (inactive)
GI50 (SNB-19): 10.5 µM (inactive)
GI50 (UACC-62): 12.5 µM (inactive)
GI50 (OVCAR-3): 11.8 µM (inactive)
GI50 (NCI-H522): 4.94 µM (inactive)
GI50 (LOX IMVI): 6.85 µM (inactive)
GI50 (HCC 2998): 14.8 µM (inactive)
GI50 (SK-MEL-5): 20.1 µM (inactive)
GI50 (LXFL 529): 5.07 µM (inactive)
GI50 (HOP-62): 13 µM (inactive)
GI50 (XF498): 10.7 µM (inactive)
GI50 (SW-620): 5.71 µM (inactive)
GI50 (SF-295): 30.3 µM (inactive)
GI50 (SK-MEL-2): 7.46 µM (inactive)
GI50 (UO-31): 7.69 µM (inactive)
GI50 (Malme-3M): 8.65 µM (inactive)
GI50 (TK-10): 11.8 µM (inactive)
GI50 (DLD-1): 15.7 µM (inactive)
GI50 (KM-20L2): 29.9 µM (inactive)
GI50 (OVCAR-4): 17.5 µM (inactive)
GI50 (HOP-92): 24.4 µM (inactive)
GI50 (OVCAR-8): 6.67 µM (inactive)
GI50 (UACC-257): 26.2 µM (inactive)
GI50 (SN12C): 12.9 µM (inactive)
GI50 (M19-MEL): 12.2 µM (inactive)
GI50 (ACHN): 9.57 µM (inactive)
GI50 (SF-539): 7.73 µM (inactive)
GI50 (SF-268): 8.18 µM (inactive)
GI50 (OVCAR-5): 16.5 µM (inactive)
GI50 (NCI-H226): 5.22 µM (inactive)
